Measured values taken from patent publication US20240082212A1, “USE OF MDMA FOR TREATMENT OF STRESS-RELATED DISORDERS” (priority 2022, published 2024).

Legend:
rats = conditions: 4 hourly SC injections at 10 mg/kg/injection (Biezonski et al., 2013); cited from earlier work
Adrenergic α2A = target: T1, Adrenergic α2A (Homo sapiens, UniProt P08913); assay: Eurofins Panlabs radioligand binding panel, adrenergic α2A; conditions: 10 uM
T1 sequence (P08913 1-465): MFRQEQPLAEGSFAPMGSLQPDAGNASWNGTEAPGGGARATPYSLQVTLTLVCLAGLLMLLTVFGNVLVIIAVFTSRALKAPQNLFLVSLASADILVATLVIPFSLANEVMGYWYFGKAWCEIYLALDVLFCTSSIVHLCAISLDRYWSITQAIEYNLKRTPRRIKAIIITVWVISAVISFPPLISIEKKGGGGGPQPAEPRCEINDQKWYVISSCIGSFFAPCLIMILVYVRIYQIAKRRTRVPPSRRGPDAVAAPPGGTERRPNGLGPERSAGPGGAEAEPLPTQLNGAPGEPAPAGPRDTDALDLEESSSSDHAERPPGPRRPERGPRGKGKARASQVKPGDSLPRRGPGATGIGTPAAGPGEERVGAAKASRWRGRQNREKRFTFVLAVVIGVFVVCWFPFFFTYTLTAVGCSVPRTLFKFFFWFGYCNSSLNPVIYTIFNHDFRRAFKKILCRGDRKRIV
Procedure: Each of the compounds was evaluated for binding to 87 different targets as part of a panel (Eurofins Panlabs, Taiwan, China). Each compound was tested at a single concentration of […]. The panel included mostly G-protein-couple receptors, ion channels, enzymes, transporters and nuclear receptors, expressed in the central nervous system, cardiovascular, respiratory, gastrointestinal and renal systems. A limited number of targets were of pig, rat or guinea pig origin. Targets were expressed in human recombinant cells lines, rat brain or spinal cord, guinea pig brain or pig heart. Methods were adapted from the scientific literature to maximize reliability and reproducibility. Reference standards were run as an integral part of each assay to ensure validity of the results obtained (available online at the eurofins website for the safety screen 87 panel).

Adrenergic α2B = target: T2, Adrenergic α2B (Homo sapiens, UniProt P18089); assay: Eurofins Panlabs radioligand binding panel, adrenergic α2B; conditions: 10 uM
T2 sequence (P18089 1-450): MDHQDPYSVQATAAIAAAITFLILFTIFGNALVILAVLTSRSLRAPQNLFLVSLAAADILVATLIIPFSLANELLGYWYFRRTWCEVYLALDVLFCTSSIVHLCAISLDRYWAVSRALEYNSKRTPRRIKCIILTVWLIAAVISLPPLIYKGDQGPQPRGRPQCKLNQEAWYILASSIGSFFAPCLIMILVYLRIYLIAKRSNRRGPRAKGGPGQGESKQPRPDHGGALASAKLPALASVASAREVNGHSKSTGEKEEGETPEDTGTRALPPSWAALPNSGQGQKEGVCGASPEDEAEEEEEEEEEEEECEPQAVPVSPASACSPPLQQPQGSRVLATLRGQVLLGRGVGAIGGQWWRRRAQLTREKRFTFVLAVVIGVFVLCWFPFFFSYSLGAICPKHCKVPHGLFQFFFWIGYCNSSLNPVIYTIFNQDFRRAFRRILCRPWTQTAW

Structure (SMILES) | body temperature (rats) | % inhibition of binding or activity (Adrenergic α2A) [%] | % inhibition of binding or activity (Adrenergic α2B) [%]
CNC(C)Cc1ccc2c(c1)OCO2 (racemic) [Racemic MDMA, 3,4-methylenedioxymethamphetamine] | significant increase in body temperature |  | 
C[C@H](N)Cc1ccc2c(c1)OCO2 [S-MDA, S(+)-MDA] |  | 63 | 51
